Measured values taken from ChEMBL document CHEMBL4184095, “Identification of novel small-molecule inhibitors of Zika virus infection” (Bioorg Med Chem Lett, 2018).

Tests used:
[1] = Cytotoxicity against human A549 cells assessed as cell viability at 1 uM by MTT assay relative to control; assay type: cell-based; settings: read-out: Activity
[2] = tested on: Zika virus; test: Antiviral activity against Zika virus infected in human A549 cells preincubated for 5 hrs followed by compound wash measured after 48 hrs by viral plague-forming assay; assay type: functional, organism-based
[3] = Cytotoxicity against human A549 cells assessed as cell viability at 10 uM by MTT assay relative to control; assay type: cell-based; settings: read-out: Activity
[4] = Cytotoxicity against human A549 cells assessed as cell viability at 0.1 uM by MTT assay relative to control; assay type: cell-based; settings: read-out: Activity
[5] = Cytotoxicity against human A549 cells assessed as cell viability at 100 uM by MTT assay relative to control; assay type: cell-based; settings: read-out: Activity
[6] = tested on: Zika virus; test: Antiviral activity against Zika virus infected in human A549 cells assessed as virus titer preincubated for 5 hrs followed by compound wash measured after 48 hrs by viral plague-forming assay; assay type: functional

COc1ccc(CCCn2ncc3c2nc(N)n2nc(-c4ccco4)nc32)cc1
viability at 1 µM [1]: 106% | IC50 [2]: 3060 nM | viability at 10 µM [3]: 77.2% | viability at 0.1 µM [4]: 94.7% | viability at 100 µM [5]: 41.6%

C=CCSc1nsc(NC(=O)Nc2cccc(C(C)=O)c2)n1
viability at 1 µM [1]: 105% | IC50 [2]: 160 nM | Activity [6]: 7 log10PFU/ml | viability at 10 µM [3]: 96.7% | viability at 0.1 µM [4]: 104% | viability at 100 µM [5]: 21.6%

O=C(Nc1nc(SCCOc2ccccc2)ns1)Nc1ccc(F)cc1F
viability at 1 µM [1]: 102% | IC50 [2]: 4940 nM | viability at 10 µM [3]: 95.5% | viability at 0.1 µM [4]: 96.2% | viability at 100 µM [5]: 27.3%

O[C@H]1CC[C@H](Nc2nc(-c3ccccc3)nc3[nH]ccc23)CC1
viability at 1 µM [1]: 111% | IC50 [2]: 58.6 nM | viability at 10 µM [3]: 98.5% | viability at 0.1 µM [4]: 106% | viability at 100 µM [5]: 41.7%

C#CCSc1nsc(NC(=O)Nc2ccccc2Cl)n1
viability at 1 µM [1]: 96.2% | IC50 [2]: 1680 nM | viability at 10 µM [3]: 89.9% | viability at 0.1 µM [4]: 98.1% | viability at 100 µM [5]: 21.4%

C=CCSc1nsc(NC(=O)Nc2ccc(Cl)cc2)n1
viability at 1 µM [1]: 98.1% | IC50 [2]: 0.189 nM | viability at 10 µM [3]: 51.2% | viability at 0.1 µM [4]: 100% | viability at 100 µM [5]: 15.1%

COc1ccc(C2CNC(=O)NC2)cc1O[C@@H]1C[C@H]2CC[C@H]1C2
viability at 1 µM [1]: 104% | IC50 [2]: 182 nM | viability at 10 µM [3]: 94.3% | viability at 0.1 µM [4]: 96.6% | viability at 100 µM [5]: 43.3%

C=CCSc1nsc(NC(=O)Nc2ccc(F)cc2F)n1
viability at 1 µM [1]: 100% | IC50 [2]: 4480 nM | viability at 10 µM [3]: 90.2% | viability at 0.1 µM [4]: 100% | viability at 100 µM [5]: 31.3%

C#CCSc1nsc(NC(=O)Nc2ccc(Cl)c(C(F)(F)F)c2)n1
viability at 1 µM [1]: 97.8% | IC50 [2]: 26.9 nM | viability at 10 µM [3]: 74.1% | viability at 0.1 µM [4]: 99.8% | viability at 100 µM [5]: 18%

C=CCSc1nsc(NC(=O)Nc2ccc(Cl)cc2C(F)(F)F)n1
viability at 1 µM [1]: 104% | IC50 [2]: 0.318 nM | viability at 10 µM [3]: 95.8% | viability at 0.1 µM [4]: 102% | viability at 100 µM [5]: 43.1%

O=S(=O)(c1c(F)c(F)c(F)c(F)c1F)N1CCN(c2ccccc2)CC1
viability at 1 µM [1]: 103% | IC50 [2]: 0.87 nM | Activity [6]: 7 log10PFU/ml | viability at 10 µM [3]: 77% | viability at 0.1 µM [4]: 93.1% | viability at 100 µM [5]: 35%

CCCn1c(=O)[nH]c2nc(-c3ccc(S(=O)(=O)N4CCN(c5ccc(Cl)cc5)CC4)cc3)[nH]c2c1=O
viability at 1 µM [1]: 97.4% | IC50 [2]: 43.8 nM | viability at 10 µM [3]: 86.5% | viability at 0.1 µM [4]: 97.7% | viability at 100 µM [5]: 35.8%

COc1ccc([C@@H]2CNC(=O)C2)cc1OC1CCCC1 [(-)-ROLIPRAM]
viability at 1 µM [1]: 97.1% | IC50 [2]: 77.6 nM | viability at 10 µM [3]: 92.5% | viability at 0.1 µM [4]: 95.7% | viability at 100 µM [5]: 39.1%

CCCOc1cc([C@]2(C)CNC(=O)O2)ccc1OC [DAXALIPRAM]
viability at 1 µM [1]: 106% | IC50 [2]: 769 nM | viability at 10 µM [3]: 95.3% | viability at 0.1 µM [4]: 101% | viability at 100 µM [5]: 41.8%

CN1CCCC1=O [METHYLPYRROLIDONE]
viability at 1 µM [1]: 102% | viability at 10 µM [3]: 99.4% | viability at 0.1 µM [4]: 98.6% | viability at 100 µM [5]: 39.3%

COCCOc1ccc(N2CCN(CCn3ncc4c3nc(N)n3nc(-c5ccco5)nc43)CC2)cc1 [PRELADENANT]
viability at 1 µM [1]: 104% | IC50 [2]: 136 nM | Activity [6]: 7 log10PFU/ml | viability at 10 µM [3]: 57% | viability at 0.1 µM [4]: 109% | viability at 100 µM [5]: 27.9%

COc1ccc(C2CNC(=O)C2)cc1OC1CCCC1 (stereo not drawn) [ROLIPRAM]
viability at 1 µM [1]: 114% | IC50 [2]: 44.6 nM | Activity [6]: 7 log10PFU/ml | viability at 10 µM [3]: 101% | viability at 0.1 µM [4]: 107% | viability at 100 µM [5]: 43.4%

COc1ccc([C@H]2CNC(=O)C2)cc1OC1CCCC1 [S-ROLIPRAM]
viability at 1 µM [1]: 105% | IC50 [2]: 25.8 nM | viability at 10 µM [3]: 97% | viability at 0.1 µM [4]: 96.5% | viability at 100 µM [5]: 40.9%

Nc1nc(NCCc2ccc(O)cc2)nc2nc(-c3ccco3)nn12 [ZM-241385]
viability at 1 µM [1]: 110% | IC50 [2]: 1070 nM | viability at 10 µM [3]: 77.8% | viability at 0.1 µM [4]: 107% | viability at 100 µM [5]: 32.6%
